Data on 27 compounds can be found in patent US7268164B2, “Anti-epileptogenic agents” (Queens University at Kingston, priority 1997, dated 2007).

Counter-ions that a name gives are not always drawn.

For data set [1], the system named is MES-induced seizure; pentylenetetrazol induced seizure. Kind of data set: biological activity per Example 6 (MES, scMet anticonvulsant tests). The data set is classed as in vivo, carsworth Farms #1 mice or Sprague-Dawley rats. The following applies: tested per Example 6. As to the method:
(§1) Selected compounds were dissolved in 0.9% NaCl or suspended in a mixture of 30% polyethylene glycol 400 and 70% water, and tested in an animal model. Briefly, the compounds were administered intraperitoneally or or orally to carsworth Farms #1 mice (in a volume of 0.01 ml/g of body weight) or Sprague-Dawley rats (in a volume of 0.004 ml/g body weight). Times on peak effect and peak neurologic deficit were determined before the anticonvulsant tests were administered.
(§2) The maximal electroshock seizure test (MES), corneal electrodes primed with a drop of electrolyte solution (0.9% NaCl) were applied to the eyes of the animal and an electrical stimulus (50 mA for mice, 150 mA for rats; 60 Hz) was delivered for 0.2 second at the time of the peak effect of the test compound. The animals were restrained by hand and released at the moment of stimulation in order to permit observation of the seizure.
(§3) In the subcutaneous pentylenetetrazol threshold test (scMet), the convulsant dose (CD97) of pentylenetetrazol (85 mg/kg in rats) was injected at the time of peak effect of the test compound. The animals were isolated and observed for 30 minutes to see whether seizures occurred.
(§4) Acute anti-convulsant drug-induced toxicity in lab animals is usually characterized by some type of neurologic abnormality. In mice, these abnormalities can be detected by the rotorod ataxia test, which is somewhat less useful in rats. In the rotorod ataxia test, neurologic deficit is indicated by the inability of the animal to maintain equilibrium for at least one minute on a knurled rod rotating at 6 rpm. […] Inability to return the leg to normal position indicates a neurologi deficit.

The test system of data set [2] is spontaneous recurrent seizures. Kind of data set: spontaneous recurrent seizures (SRS) model of epilepsy. The data set is classed as in vivo, Sprague-Dawley rat. Particulars: for effective in decreasing seizures by at least 50%: administered at Time 1 (Day 1, after status epilepticus, before onset of SRS); for effective in decreasing seizures by at least 50% / effective in decreasing seizures (seizure frequency) by at least 50%: 20 mg/kg/day i.v. for 10 days; for effective in decreasing seizures (seizure frequency) by at least 50%: administered at Time 2 (Day 30, established SRS). As to the method: The “spontaneous recurrent seizures” (SRS) model of epilepsy was used to evaluate candidate compounds in a model for Phase 1 epileptogenesis (see, e.g., Mello, E. et al., Epilepsia (1993) 34:985; Cavalheiro, J. et al., Epilepsia (1991) 32:778). In the SRS model, an adult male Sprague-Dawley rat (c. 260 g) is given pilocarpine by injection (380 mg/kg i.p.). Within 25 minutes, the animal enters status epilepticus, which typically lasts for 15-20 hours (although about 10% of animals die at this stage). The rat is allowed to spontaneously recover and is given food and water ad lib. and maintained on a 12 hour/12 hour light/dusk cycle. Rats are usually studied in groups of four. Beginning on about day 13-15, the rats develop spontaneous recurrent seizures, which occur at the rate of about 4-5 per week. The rats are videotaped 24 hours per day, and the videotapes are reviewed for behavioral seizures (including head nodding, forelimb clonus, and rearing), which are counted. The animals are watched for three months, permitting evaluation of a sufficient number of seizures. […] Administration of the candidate compound at Time 1 permits evaluation for anti-epileptogenic properties (ability to prevent the onset of seizures); administration of compounds at Time 2 permits evaluation of drugs as anti-ictogenics with the ability to suppress established seizures.
As a reference, the standard anticonvulsant phenytoin was administered (20 mg/kg/day i.v. for 10 day) at either Time 1 or Time 2.

In a further data set the test system is mice. As to the kind of experiment: testing of dioxapiperazine compounds in mice (Example 7). The data set is classed as in vivo. More on the design: key to Activity: 300 mg/kg / Activity: 100 mg/kg / Activity: 30 mg/kg: 0 (inactive); 1: Activity on scale of 0 (inactive) to 4.; 2: Activity on scale of 0 (inactive) to 4.; 3: Activity on scale of 0 (inactive) to 4.; Activity on scale of 0 (inactive) to 4. Particulars: for Activity: 100 mg/kg / Activity: 300 mg/kg / Activity: 30 mg/kg: mice, 30 minutes and four hours after administration; for anti-convulsive activity: animal model system of Table 4, in words. As to the method:
as §1, §2, §3, §4
Testing of the compounds was performed in 12 mice at doses of 30, 100, 300 mg/kg (4 mice each) 30 minutes and four hours after the test compounds was administered.

The nature of another data set: solubility in saline. It is filed as physicochemical.

In the case of `COc1cccc(C(N)CC(=O)O)c1O` (stereo not drawn) [β-2-hydroxy-3-methoxyphenyl-β-alanine], in data set [1], the biological activity result is “at least weak activity”.
As to `COc1cc(C)c(C(N)CC(=O)O)cc1C` (stereo not drawn) [β-2,5-dimethyl-4-methoxyphenyl-β-alanine], the biological activity entry in data set [1] was “at least weak activity”.
With `NCCC(=O)O` [β-alanine], in data set [2], the “effective in decreasing seizures by at least 50%” value stood at 75% and the “effective in decreasing seizures (seizure frequency) by at least 50%” value worked out at 50%.
As for `NCCCCC1NC(=O)C(c2ccc(O)cc2)NC1=O` [c/D-(p-OH)-Peg-L-Lys], in the data set on mice, the “Activity: 100 mg/kg” value was 0 and the “Activity: 300 mg/kg” value is reported as 0.
Consider `CSCCC1NC(=O)C(c2ccccc2)NC1=O` [c/D-Peg-L-Met], for which, in the data set on mice, the “Activity: 100 mg/kg” value was 0 and the “Activity: 300 mg/kg” value stood at 1.
As for `NC(CC(=O)O)c1ccccc1` (stereo not drawn) [Compound B5P91, β-Phenyl-β-alanine], the solubility in the data set “solubility in saline” is 7.35-7.2 (s, 5H)4.45 (t, 1H, 7.3 Hz)2.8-2.1 (m, 2H)solubility: ~10 mg/mlsaline.
`CSCCC1NC(=O)C(c2ccccc2)NC1=O` [c/D-Peg-D-Met]: in the data set on mice, the “Activity: 100 mg/kg” value is 0 and the “Activity: 300 mg/kg” value was 0.
Turning to `C[C@@H]1NC(=O)[C@H](c2ccccc2)NC1=O` [c/L-Peg-L-Ala], in the data set with mice, the “Activity: 100 mg/kg” value was 0 and the “Activity: 300 mg/kg” value was 0.
In the case of `Cc1ccc(C(N)CC(=O)O)cc1` (stereo not drawn) [β-p-methylphenyl-β-alanine hydrochloride], the biological activity result in data set [1] is given as “at least weak activity”.
Consider `NCCC1NC(=O)C(c2ccccc2)NC1=O` [c/D-Peg-L-diaminobutyric acid], for which, in the data set on mice, the “Activity: 100 mg/kg” value is listed as 0 and the “Activity: 300 mg/kg” value turned out to be 0.
Turning to “cyclo-D-phenylglycyl-(S-Me)-L-cysteine [c/D-Peg-L-(S-methyl)-L-cysteine]”, in the data set on mice, the anti-convulsive activity entry was “strong anti-convulsive activity”, the “Activity: 30 mg/kg” value turned out to be 2, the “Activity: 100 mg/kg” value is listed as 3 and the “Activity: 300 mg/kg” value is reported as 4.
Consider `NC(CC(=O)O)c1cccc(C(F)(F)F)c1F` (stereo not drawn) [β-2-fluoro-3-(trifluoromethyl)phenyl-β-alanine], for which, in data set [1], the biological activity entry is reported as “moderate”.
`N=C(N)NCCC[C@@H]1NC(=O)[C@@H](c2ccccc2)NC1=O` [c/D-Peg-L-Arg]: in the data set on mice, the “Activity: 100 mg/kg” value is recorded as 0 and the “Activity: 300 mg/kg” value came out at 0.
As for `NCCCC1NC(=O)C(c2ccccc2)NC1=O` [c/D-Peg-L-Ornithine (Orn)], in the data set with mice, the “Activity: 100 mg/kg” value was found to be 0 and the “Activity: 300 mg/kg” value came out at 0.
For the compound `CC1NC(=O)C(c2ccc(O)cc2)NC1=O` [c/D-(p-OH)-Peg-L-Ala], in the data set with mice, the “Activity: 100 mg/kg” value was 0 and the “Activity: 300 mg/kg” value turned out to be 0.
Regarding `O=C(O)CC(NCl)c1ccc(Cl)cc1` (stereo not shown), the solubility in “solubility in saline” was 7.3-7.17 (s, 4H)4.07-4.17 (t, 7H, 7.2 Hz)2.45-2.55 (dt, 4.5 Hz, 3.5Hz)solubility: ~10 mg/mlsaline.
As to `CC(C)CC1NC(=O)C(C)NC1=O` [c/L-alanine-D-leucine], in the data set with mice, the anti-convulsive activity result is “active”.
Consider `CC(C)(C)C1CCC(C(CN)C(=O)O)CC1.Cl` (stereo not drawn) [Compound B5P127, α-(4-tert-Butylcyclohexyl)-β-alanine Hydrochloride Salt], for which, in data set [2], the “effective in decreasing seizures by at least 50%” value came out at 75% and the “effective in decreasing seizures (seizure frequency) by at least 50%” value is on record as 50%.
Take `NCCCCC1NC(=O)C(c2ccccc2)NC1=O` [c/D-Peg-D-Lys]: in the data set with mice, the “Activity: 100 mg/kg” value turned out to be 0 and the “Activity: 300 mg/kg” value was found to be 0.
For `COc1ccc(C(N)CC(=O)O)cc1C` (stereo not drawn) [β-3-methyl-4-methoxyphenyl-β-alanine], the biological activity entry in data set [1] is on record as “slight”.
As for `O=C1NC(=O)C(c2ccccc2)(c2ccccc2)N1` [phenytoin], in data set [2] (administered at Time 1, 20 mg/kg/day i.v. for 10 day), the “preventing the onset of seizures” value was “ineffective”. The “effective in decreasing seizures (seizure frequency) by at least 50%” value in data set [2] came to 75%.
As to `C[C@@H]1NC(=O)[C@@H](c2ccccc2)NC1=O` [c/D-Peg-L-Ala, Cyclo-D-phenylglycine-L-alanine], in the data set on mice, the anti-convulsive activity entry is “strong anti-convulsive activity”, the “Activity: 30 mg/kg” value was 2, the “Activity: 100 mg/kg” value was found to be 3 and the “Activity: 300 mg/kg” value is recorded as 4.
As to `NC(CC(=O)O)c1ccc(OC(F)(F)F)cc1` (stereo not drawn) [β-p-(trifluoromethoxy)phenyl-β-alanine], the biological activity result in data set [1] is “at least weak activity”.
Regarding `NCCC[C@H]1NC(=O)[C@@H](c2ccccc2)NC1=O` [c/D-Peg-D-Orn], in the data set on mice, the “Activity: 100 mg/kg” value came out at 0 and the “Activity: 300 mg/kg” value amounted to 0.
As to `Cc1ccc(C(CC(=O)O)NCl)cc1` (stereo not shown), in the data set “solubility in saline”, the solubility is on record as 7.2-7.1 (M, 4H)4.17-4.09(t, 1H, 7.4 Hz)2.39-2.46 (m, 2H)solubility: ~10 mg/mlsaline.
Turning to `O=C1CNC(=O)[C@@H](c2ccccc2)N1` [c/D-Peg-Gly], in the data set on mice, the “Activity: 30 mg/kg” value is given as 0, the “Activity: 100 mg/kg” value came to 1 and the “Activity: 300 mg/kg” value is 2.
As for `NCCCCC1NC(=O)C(c2ccccc2)NC1=O` [c/D-Peg-L-Lys], in the data set on mice, the “Activity: 100 mg/kg” value turned out to be 0 and the “Activity: 300 mg/kg” value was 1.
